Source: patent US9403823B2, “Protein kinase inhibitors” (ORIBASE PHARMA, priority 2012, dated 2016)
Where two headings read alike, the source gives them in different places.

What was measured:
[1] = system: A549 cell line; assay: In vitro cell proliferation assay (MTT), A549; type: cell-based; conditions: Homo sapiens; A549, 72 hr, MTT; read-out: EC50, anti-proliferative activity
Protocol: (§1) 2) In Vitro Cell Proliferation Assays (Table 22 to Table 35)
(§2) Cancer cell lines (5×10^3 cells per well) or HUVEC (1×10^4 cells per well) or HRMEC (1×10^4 cells per well) were distributed in 96-well plates and incubating in duplicate with escalating concentrations (10 nM to 3 μM) of compounds for 72 hr. Cell proliferation was measured using MTT (3[4,5-dimethylthiazol-2-yl]-2,5-diphenyltetrazolium bromide).

[2] = target: T1, FGFR2 (Homo sapiens, UniProt P21802); assay: In vitro kinase assay (Z'-LYTE), FGFR2; type: biochemical; conditions: read-out: % of inhibition of the kinase compared to the control
T1 construct: purchased Invitrogen
Protocol: (§3) 1) In Vitro Kinase Assays (Table 10 to Table 21)
(§4) The inhibitory activity of the compounds on several kinases including BRAF, EGFR (ErbB1), EGFR (ErbB1) T790M L858R, FGFR2, KDR (VEGFR2), PDGFRA (PDGFR alpha), SRC and other was evaluated by Invitrogen using the Z′-LYTE® technology. Briefly, the Z′-LYTE® biochemical assay employs a fluorescence-based, coupled-enzyme format and is based on the differential sensitivity of phosphorylated and non-phosphorylated peptides to proteolytic cleavage. The peptide substrate is labeled with two fluorophores—one at each end—that make up a FRET pair. A ratiometric method, which calculates the ratio (the Emission Ratio) of donor emission to acceptor emission after excitation of the donor fluorophore at 400 nm, is used to quantitate reaction progress.
(§5) The compounds are screened in 1% DMSO (final) in the well. For 10 point titrations, 3-fold serial dilutions are conducted from the starting concentration. All Peptide/Kinase Mixtures are diluted to a 2× working concentration in the appropriate Kinase Buffer. All ATP Solutions are diluted to a 4× working concentration in Kinase Buffer (50 mM HEPES pH 7.5, 0.01% BRIJ-35, 10 mM MgCl2, 1 mM EGTA). ATP Km apparent is previously determined using a Z′-LYTE® assay.
(§6) Each compound was incubated at a concentration of 100 nM (excepted to test the activity against ABL and ABL T315I for which the compounds were incubated at a concentration of 10 μM) and the tables 10 to 21 summarize the results obtained showing the inhibitory power of a compound.

[3] = target: T2, BRAF (Homo sapiens, UniProt P15056); assay: In vitro kinase assay (Z'-LYTE), BRAF; type: biochemical; conditions: read-out: % of inhibition of the kinase compared to the control
T2 construct: purchased Invitrogen
Protocol: as §3, §4, §5, §6

[4] = target: T3, PDGFRA (PDGFR alpha) (Homo sapiens, UniProt P16234); assay: In vitro kinase assay (Z'-LYTE), PDGFRA; type: biochemical; conditions: read-out: % of inhibition of the kinase compared to the control
T3 construct: purchased Invitrogen
Protocol: as §3, §4, §5, §6

[5] = target: T4, SRC (Homo sapiens, UniProt P12931); assay: In vitro kinase assay (Z'-LYTE), SRC; type: biochemical; conditions: read-out: % of inhibition of the kinase compared to the control
T4 construct: purchased Invitrogen
Protocol: as §3, §4, §5, §6

[6] = system: HUVEC; assay: In vitro cell proliferation assay (MTT), HUVEC; type: cell-based; conditions: Homo sapiens, read-out: EC50, anti-proliferative activity
Protocol: as §1, §2

[7] = target: T5, EGFR (ErbB1) (Homo sapiens, UniProt P00533); assay: In vitro kinase assay (Z'-LYTE), EGFR (ErbB1); type: biochemical; conditions: read-out: % of inhibition of the kinase compared to the control
T5 construct: purchased Invitrogen
Protocol: as §3, §4, §5, §6

[8] = target: T6, KDR (VEGFR2) (Homo sapiens, UniProt P35968); assay: In vitro kinase assay (Z'-LYTE), KDR (VEGFR2); type: biochemical; conditions: read-out: % of inhibition of the kinase compared to the control
T6 construct: purchased Invitrogen
Protocol: as §3, §4, §5, §6

[9] = system: HepG2 cell line; assay: In vitro cell proliferation assay (MTT), HepG2; type: cell-based; conditions: Homo sapiens, read-out: EC50, anti-proliferative activity
Protocol: as §1, §2

T5 sequence (P00533 25-1210): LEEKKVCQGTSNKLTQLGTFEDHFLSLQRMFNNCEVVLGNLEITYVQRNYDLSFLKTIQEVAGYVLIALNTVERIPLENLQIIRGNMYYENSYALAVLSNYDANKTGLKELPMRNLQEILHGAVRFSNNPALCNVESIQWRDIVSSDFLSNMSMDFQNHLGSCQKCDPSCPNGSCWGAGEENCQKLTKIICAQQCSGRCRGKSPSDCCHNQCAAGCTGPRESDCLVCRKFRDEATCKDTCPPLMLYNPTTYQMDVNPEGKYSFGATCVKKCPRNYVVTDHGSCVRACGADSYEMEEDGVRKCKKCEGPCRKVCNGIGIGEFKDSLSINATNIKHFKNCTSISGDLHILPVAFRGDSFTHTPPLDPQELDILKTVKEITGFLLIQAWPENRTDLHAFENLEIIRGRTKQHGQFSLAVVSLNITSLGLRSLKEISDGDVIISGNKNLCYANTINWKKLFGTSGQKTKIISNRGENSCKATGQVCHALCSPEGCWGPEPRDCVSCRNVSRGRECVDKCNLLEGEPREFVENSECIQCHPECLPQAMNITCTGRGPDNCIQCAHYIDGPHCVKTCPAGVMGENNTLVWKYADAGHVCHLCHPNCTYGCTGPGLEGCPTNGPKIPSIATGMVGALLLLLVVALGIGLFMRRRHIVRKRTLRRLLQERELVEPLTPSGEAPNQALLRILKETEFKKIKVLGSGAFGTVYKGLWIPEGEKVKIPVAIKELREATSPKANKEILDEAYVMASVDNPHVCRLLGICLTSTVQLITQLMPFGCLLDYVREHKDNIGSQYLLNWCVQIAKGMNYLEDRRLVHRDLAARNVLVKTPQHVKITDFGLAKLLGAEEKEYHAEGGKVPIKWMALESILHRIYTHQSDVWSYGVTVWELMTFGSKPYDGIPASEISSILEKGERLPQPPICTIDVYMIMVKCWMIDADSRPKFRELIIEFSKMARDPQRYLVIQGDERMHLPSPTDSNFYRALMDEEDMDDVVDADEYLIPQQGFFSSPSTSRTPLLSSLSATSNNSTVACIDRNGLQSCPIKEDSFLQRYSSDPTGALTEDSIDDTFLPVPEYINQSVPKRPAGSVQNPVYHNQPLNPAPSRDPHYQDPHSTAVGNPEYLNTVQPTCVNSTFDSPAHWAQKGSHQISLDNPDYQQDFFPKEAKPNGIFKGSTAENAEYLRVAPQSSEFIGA
T6 sequence (P35968 20-1356): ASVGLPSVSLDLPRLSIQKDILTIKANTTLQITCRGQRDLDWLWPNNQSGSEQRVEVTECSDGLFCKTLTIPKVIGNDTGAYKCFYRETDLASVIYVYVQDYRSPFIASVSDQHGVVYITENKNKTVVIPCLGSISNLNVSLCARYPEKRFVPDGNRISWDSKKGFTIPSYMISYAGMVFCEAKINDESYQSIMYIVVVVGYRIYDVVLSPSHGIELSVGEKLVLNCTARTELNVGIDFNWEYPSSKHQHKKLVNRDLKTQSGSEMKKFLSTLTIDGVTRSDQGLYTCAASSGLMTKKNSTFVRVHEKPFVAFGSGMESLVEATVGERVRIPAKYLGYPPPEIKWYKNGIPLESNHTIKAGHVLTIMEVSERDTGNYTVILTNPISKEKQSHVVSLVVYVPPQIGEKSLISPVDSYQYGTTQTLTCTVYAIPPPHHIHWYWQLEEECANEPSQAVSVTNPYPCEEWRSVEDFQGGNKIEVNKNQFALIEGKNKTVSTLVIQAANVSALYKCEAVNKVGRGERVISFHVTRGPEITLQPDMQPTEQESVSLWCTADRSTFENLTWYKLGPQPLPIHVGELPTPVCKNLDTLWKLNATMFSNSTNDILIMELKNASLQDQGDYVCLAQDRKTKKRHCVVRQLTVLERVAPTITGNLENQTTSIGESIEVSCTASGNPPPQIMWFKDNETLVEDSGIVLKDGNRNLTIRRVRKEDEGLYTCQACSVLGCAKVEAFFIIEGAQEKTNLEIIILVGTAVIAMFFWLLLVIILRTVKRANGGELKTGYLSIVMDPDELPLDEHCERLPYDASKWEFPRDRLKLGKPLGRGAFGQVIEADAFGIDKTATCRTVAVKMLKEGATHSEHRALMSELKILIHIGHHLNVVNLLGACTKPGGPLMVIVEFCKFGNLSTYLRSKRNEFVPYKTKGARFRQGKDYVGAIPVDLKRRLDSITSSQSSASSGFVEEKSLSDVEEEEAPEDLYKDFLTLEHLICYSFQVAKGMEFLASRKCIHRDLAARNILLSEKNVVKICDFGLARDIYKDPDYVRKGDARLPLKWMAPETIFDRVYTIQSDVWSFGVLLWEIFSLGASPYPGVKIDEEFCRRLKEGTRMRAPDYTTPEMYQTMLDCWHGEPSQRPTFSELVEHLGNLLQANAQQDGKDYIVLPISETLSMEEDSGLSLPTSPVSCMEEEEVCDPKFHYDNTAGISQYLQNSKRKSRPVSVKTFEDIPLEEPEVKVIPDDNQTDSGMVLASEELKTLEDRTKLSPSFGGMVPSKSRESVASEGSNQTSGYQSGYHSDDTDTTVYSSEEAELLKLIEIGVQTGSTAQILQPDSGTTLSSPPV
T4 sequence (P12931 whole entry): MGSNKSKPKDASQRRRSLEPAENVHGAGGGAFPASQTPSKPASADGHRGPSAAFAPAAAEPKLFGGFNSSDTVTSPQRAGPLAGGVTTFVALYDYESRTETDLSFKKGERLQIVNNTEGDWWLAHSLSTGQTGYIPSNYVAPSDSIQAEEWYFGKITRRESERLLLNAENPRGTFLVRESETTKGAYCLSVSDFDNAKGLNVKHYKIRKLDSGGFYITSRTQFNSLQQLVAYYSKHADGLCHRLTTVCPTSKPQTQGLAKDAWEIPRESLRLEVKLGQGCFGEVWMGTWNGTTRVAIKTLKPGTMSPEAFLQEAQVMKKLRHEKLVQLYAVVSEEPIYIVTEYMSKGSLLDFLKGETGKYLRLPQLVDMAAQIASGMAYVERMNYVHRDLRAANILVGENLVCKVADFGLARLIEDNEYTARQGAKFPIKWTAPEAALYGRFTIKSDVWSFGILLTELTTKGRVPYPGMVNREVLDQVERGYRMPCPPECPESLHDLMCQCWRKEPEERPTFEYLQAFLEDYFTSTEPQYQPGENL
T3 sequence (P16234 24-1089): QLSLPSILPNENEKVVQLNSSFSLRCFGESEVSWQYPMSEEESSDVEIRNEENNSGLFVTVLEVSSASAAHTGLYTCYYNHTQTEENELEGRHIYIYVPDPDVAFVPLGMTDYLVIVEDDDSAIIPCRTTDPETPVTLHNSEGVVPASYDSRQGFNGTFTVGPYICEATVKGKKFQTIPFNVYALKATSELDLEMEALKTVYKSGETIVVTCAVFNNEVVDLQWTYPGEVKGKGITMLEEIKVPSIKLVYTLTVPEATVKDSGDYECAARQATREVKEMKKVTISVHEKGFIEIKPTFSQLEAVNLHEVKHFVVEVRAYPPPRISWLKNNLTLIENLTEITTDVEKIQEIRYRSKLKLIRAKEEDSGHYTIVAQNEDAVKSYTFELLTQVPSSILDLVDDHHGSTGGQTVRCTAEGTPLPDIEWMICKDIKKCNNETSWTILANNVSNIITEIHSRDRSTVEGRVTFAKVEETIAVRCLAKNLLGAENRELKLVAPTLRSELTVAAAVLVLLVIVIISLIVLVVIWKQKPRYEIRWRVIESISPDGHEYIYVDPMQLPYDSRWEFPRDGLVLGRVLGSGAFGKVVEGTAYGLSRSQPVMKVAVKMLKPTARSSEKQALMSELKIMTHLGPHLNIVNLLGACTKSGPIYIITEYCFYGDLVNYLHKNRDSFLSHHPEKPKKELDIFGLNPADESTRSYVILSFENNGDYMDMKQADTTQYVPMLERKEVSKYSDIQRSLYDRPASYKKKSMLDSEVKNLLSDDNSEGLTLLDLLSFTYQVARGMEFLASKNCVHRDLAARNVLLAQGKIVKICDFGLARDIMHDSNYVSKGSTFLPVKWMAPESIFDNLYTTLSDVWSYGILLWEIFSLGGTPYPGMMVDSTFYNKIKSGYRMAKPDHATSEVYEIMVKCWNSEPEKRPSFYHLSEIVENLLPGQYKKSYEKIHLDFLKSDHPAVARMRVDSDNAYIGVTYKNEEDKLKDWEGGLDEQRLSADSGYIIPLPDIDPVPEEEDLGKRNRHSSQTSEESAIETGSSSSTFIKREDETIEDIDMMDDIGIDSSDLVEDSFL
T2 sequence (P15056 whole entry): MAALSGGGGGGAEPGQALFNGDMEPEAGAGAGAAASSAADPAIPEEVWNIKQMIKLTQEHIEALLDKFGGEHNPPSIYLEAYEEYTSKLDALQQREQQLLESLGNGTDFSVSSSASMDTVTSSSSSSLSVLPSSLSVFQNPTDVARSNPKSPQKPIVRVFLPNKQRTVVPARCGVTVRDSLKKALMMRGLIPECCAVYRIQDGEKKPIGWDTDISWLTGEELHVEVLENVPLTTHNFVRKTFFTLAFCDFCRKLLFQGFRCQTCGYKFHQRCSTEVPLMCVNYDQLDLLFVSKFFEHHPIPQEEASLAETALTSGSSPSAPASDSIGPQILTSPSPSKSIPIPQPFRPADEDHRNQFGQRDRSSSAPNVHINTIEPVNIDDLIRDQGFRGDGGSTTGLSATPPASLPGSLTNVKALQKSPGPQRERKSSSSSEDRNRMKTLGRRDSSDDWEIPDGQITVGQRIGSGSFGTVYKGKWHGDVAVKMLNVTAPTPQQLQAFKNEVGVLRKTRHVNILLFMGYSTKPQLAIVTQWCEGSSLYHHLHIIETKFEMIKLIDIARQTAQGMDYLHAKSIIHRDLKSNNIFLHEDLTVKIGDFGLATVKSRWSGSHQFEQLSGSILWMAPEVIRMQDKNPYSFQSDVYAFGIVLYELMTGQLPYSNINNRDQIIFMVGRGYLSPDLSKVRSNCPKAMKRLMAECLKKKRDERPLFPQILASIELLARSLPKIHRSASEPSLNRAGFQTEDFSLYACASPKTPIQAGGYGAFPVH

C#Cc1cccc(Nc2ncnc3cc(OCCOC)c(OCCOC)cc23)c1 [Erlotinib, reference compound]
EC50 [1]: ≥ 1 µM

CC(=O)c1cc2cc(NC(=O)c3cc(NC(=O)Nc4cccc(C(F)(F)F)c4)ccc3C)cnc2[nH]1 [OR0951, N-(2-Acetyl-1H-pyrrolo[2,3-b]pyridin-5-yl)-2-methyl-5-[3-(3-trifluoromethyl-phenyl)-ureido]-benzamide]
inhibition at 0.1 µM [2]: < 50% | inhibition at 0.1 µM [3]: < 50% | inhibition at 0.1 µM [4]: < 50% | inhibition at 0.1 µM [5]: < 50% | EC50 ([6]; 72 hr, MTT): ≥ 1 µM | inhibition at 0.1 µM [7]: < 50% | inhibition at 0.1 µM [8]: < 50% | EC50 ([9]; HepG2, 72 h): ≤ 0.1 µM

CC(=O)c1cc2cc(NCc3cc(NC(=O)c4ccncn4)ccc3C)cnc2[nH]1 [OR0988, Pyrimidine-4-carboxylic acid {3-[(2-acetyl-1H-pyrrolo[2,3-b]pyridin-5-ylamino)-methyl]-4-methyl-phenyl}-amide]
inhibition at 0.1 µM [2]: < 50% | inhibition at 0.1 µM [3]: < 50% | inhibition at 0.1 µM [4]: < 50% | inhibition at 0.1 µM [5]: < 50% | EC50 ([6]; 72 hr, MTT): ≥ 1 µM | inhibition at 0.1 µM [7]: < 50% | inhibition at 0.1 µM [8]: < 50% | EC50 ([9]; HepG2, 72 hr, MTT): ≥ 1 µM

CC(=O)c1cc2cc(NCc3cc(NC(=O)c4ccc(C)c(C(F)(F)F)c4)ccc3C)cnc2[nH]1 [OR0890, N-{3-[(2-Acetyl-1H-pyrrolo[2,3-b]pyridin-5-ylamino)-methyl]-4-methyl-phenyl}-4-methyl-3-trifluoromethyl-benzamide]
inhibition at 0.1 µM [2]: < 50% | inhibition at 0.1 µM [3]: < 50% | inhibition at 0.1 µM [4]: ≥ 50% | inhibition at 0.1 µM [5]: ≥ 50% | EC50 ([6]; 72 h): 0.1 to 1 µM | inhibition at 0.1 µM [7]: ≥ 50% | inhibition at 0.1 µM [8]: < 50% | EC50 ([9]; HepG2, 72 h): 0.1 to 1 µM

CC(=O)c1cc2cc(NCc3cc(NC(=O)c4ccn[nH]4)ccc3C)cnc2[nH]1 [OR0987, 2H-Pyrazole-3-carboxylic acid {3-[(2-acetyl-1H-pyrrolo[2,3-b]pyridin-5-ylamino)-methyl]-4-methyl-phenyl}-amide]
inhibition at 0.1 µM [2]: < 50% | inhibition at 0.1 µM [3]: ≥ 50% | inhibition at 0.1 µM [4]: ≥ 50% | inhibition at 0.1 µM [5]: < 50% | EC50 ([6]; 72 hr, MTT): ≥ 1 µM | inhibition at 0.1 µM [7]: < 50% | inhibition at 0.1 µM [8]: ≥ 50% | EC50 ([9]; HepG2, 72 hr, MTT): ≥ 1 µM

CC(=O)c1cc2cc(NCc3cc(NS(=O)(=O)c4cccc(C(F)(F)F)c4)ccc3C)cnc2[nH]1 [OR0930, N-{3-[(2-Acetyl-1H-pyrrolo[2,3-b]pyridin-5-ylamino)-methyl]-4-methyl-phenyl}-3-trifluoromethyl-benzenesulfonamide]
inhibition at 0.1 µM [2]: < 50% | inhibition at 0.1 µM [3]: < 50% | inhibition at 0.1 µM [4]: < 50% | inhibition at 0.1 µM [5]: < 50% | EC50 ([6]; 72 hr, MTT): ≥ 1 µM | inhibition at 0.1 µM [7]: < 50% | inhibition at 0.1 µM [8]: < 50% | EC50 ([9]; HepG2, 72 hr, MTT): ≥ 1 µM

CC(=O)c1cc2cc(NCc3cc(NC(=O)c4cncc(C)c4)ccc3C)cnc2[nH]1 [OR0888, N-{3-[(2-Acetyl-1H-pyrrolo[2,3-b]pyridin-5-ylamino)-methyl]-4-methyl-phenyl}-5-methyl-nicotinamide]
inhibition at 0.1 µM [2]: < 50% | inhibition at 0.1 µM [3]: ≥ 50% | inhibition at 0.1 µM [4]: ≥ 50% | inhibition at 0.1 µM [5]: ≥ 50% | EC50 ([6]; 72 h): 0.1 to 1 µM | inhibition at 0.1 µM [7]: < 50% | inhibition at 0.1 µM [8]: ≥ 50% | EC50 ([9]; HepG2, 72 hr, MTT): ≥ 1 µM
